# Laboratory results reported in patent US5869031A, “Depigmenting dermatological and/or cosmetic composition” (priority 1995, dated 1999).
# How the values were obtained:
# [1] = UVA and UVB sunscreen activity, spectrophotometric study; format: physicochemical; details: extract titrated to 5% umbelliferone, Parsol MCX as comparison
# [2] = Anti-radical activity on radical propagation (hydroxyl radicals), evaluated on DPHH; details: extract containing 5% umbelliferone; vitamin E as comparison
# Experimental: Evaluation of the anti-radical activity
# disappearance of the free radicals. Free radical traps act on the superoxide anion O2^- but also on the hydroxyl radicals. Thus, we have sought to evaluate the anti-radical activity on these two steps.
# The activity on radical propagation, and thus on the hydroxyl radicals, is evaluated on DPHH, diphenyl-picrylhydrazyl hydrate, which is a stable, colored free radical.
specific extension coefficient at 310 nm [1],"IC50 on DPHH (radical propagation, hydroxyl radicals) [2]",Compound
810,,CCCCC(CC)COC(=O)C=Cc1ccc(OC)cc1 (centres unmarked) [Parsol MCX]
,6 µg/mL,vitamin E
